Data on 22 compounds can be found in ChEMBL document CHEMBL2163284, “Targeting the S1 and S3 subsite of trypsin with unnatural cationic amino acids generates antimicrobial peptides with potential for oral administration” (J Med Chem, 2012).

In brackets after ≈: the same amount, converted by molar mass. Non-standard residues stand in square brackets, D forms with d. Residues, ends and D or L forms follow the SMILES beside them. *: point of attachment. Phe(4-guanidino) = N=C(N)Nc1ccc(C[C@H](N)C(=O)O)cc1; Bip = N[C@@H](Cc1ccc(-c2ccccc2)cc1)C(=O)O; Phe(4-NH2) = Nc1ccc(C[C@H](N)C(=O)O)cc1; hArg = N=C(N)NCCCC[C@H](N)C(=O)O; Agp = N=C(N)NC[C@H](N)C(=O)O; Orn = NCCC[C@H](N)C(=O)O; NHBn = c1ccc(CN*)cc1 Bounds are passed on as bounds.

In data set [1] the test system is Staphylococcus aureus. The data set can be described thus: Antimicrobial activity against Staphylococcus aureus ATCC 25923 by serial dilution method. It is filed as functional.
The nature of data set [2]: Binding affinity to trypsin at 25 degC by isothermal calorimetry.
Data set [3] relates to Staphylococcus aureus. The data set can be described thus: Antimicrobial activity against methicillin-resistant Staphylococcus aureus ATCC 33591 by serial dilution method. It is filed as functional.
The nature of data set [4]: Chemical stability assessed as half life at 1 mg/ml in presence of trypsin incubated for 24 hrs by RP-HPLC. It counts as physicochemical. The following applies: for half-life at 1 mg/ml: trypsin; for t1/2: isolated protein, 24 h.
Data set [5] in a line: Half life in CD1 mouse stomach whole organ extracts assessed as half life at 1 mg/ml at 37 degC at pH 7.4 by HPLC. It is filed as ADME, tissue-based.
Data set [6] in a line: Half life in CD1 mouse duodenum whole organ extracts assessed as half life at 1 mg/ml at 37 degC by HPLC. It is filed as ADME, tissue-based.
The nature of data set [7]: Half life in CD1 mouse liver whole organ extracts assessed as half life at 1 mg/ml at 37 degC by HPLC. It counts as ADME, tissue-based.

As for `N=C(N)NCCC[C@H](NC(=O)[C@H](Cc1ccc(-c2ccccc2)cc1)NC(=O)[C@@H](N)CCCCN)C(=O)NCc1ccccc1` (H-Lys-[Bip]-Arg-NHBn), the MIC against Staphylococcus aureus [1] and in the data set with Staphylococcus aureus [3] was 10 µg/mL (≈ 16.3 µM) throughout. Moreover, binding in data set [2] was put at a Kd of 11.6 µM. In addition, in data set [4], the half-life at 1 mg/ml is 1.8 h.
Take `N=C(N)NCCC[C@H](N)C(=O)N[C@@H](Cc1ccc(N)cc1)C(=O)N[C@@H](Cc1c[nH]c2ccccc12)C(=O)NCc1ccccc1` (H-Arg-[Phe(4-NH2)]-Trp-NHBn): the minimum inhibitory concentration (MIC) is 75 µg/mL (≈ 123 µM) against Staphylococcus aureus [1] and more than 150 µg/mL against Staphylococcus aureus [3]. Besides, the Kd in data set [2] worked out at 14.9 µM. In data set [4], the t1/2 entry is “Stable”.
As to `N=C(N)NCCC[C@H](N)C(=O)N[C@@H](Cc1ccc(NC(=N)N)cc1)C(=O)N[C@@H](Cc1ccc(-c2ccccc2)cc1)C(=O)NCc1ccccc1` (H-Arg-[Phe(4-guanidino)]-[Bip]-NHBn), the results for the MIC against Staphylococcus aureus [1] and against Staphylococcus aureus [3] were 2.5 µg/mL (≈ 3.62 µM) and 5 µg/mL (≈ 7.24 µM), respectively. Moreover, the half-life at 1 mg/ml in data set [4] was 3.5 h.
Turning to `N=C(N)NCCC[C@H](N)C(=O)N[C@@H](Cc1ccc(N)cc1)C(=O)N[C@@H](Cc1ccc(-c2ccccc2)cc1)C(=O)NCc1ccccc1` (H-Arg-[Phe(4-NH2)]-[Bip]-NHBn), the MIC was 15 µg/mL (≈ 23.1 µM) against Staphylococcus aureus [1] and 10 µg/mL (≈ 15.4 µM) in the data set on Staphylococcus aureus [3]. Also, in data set [2], the Kd came to 2.6 µM. In data set [4], the t1/2 result is given as “Stable”.
In the case of `N=C(N)NC[C@H](NC(=O)[C@H](Cc1ccc(-c2ccccc2)cc1)NC(=O)[C@@H](N)CNC(=N)N)C(=O)NCc1ccccc1` (H-[Agp]-[Bip]-[Agp]-NHBn), the values for the MIC against Staphylococcus aureus [1] and with Staphylococcus aureus [3] were 10 µg/mL (≈ 17 µM) and 15 µg/mL (≈ 25.6 µM), respectively. Besides, the t1/2 entry in data set [4] is reported as “Stable”.
For `N=C(N)NCCC[C@H](NC(=O)[C@@H](N)CCCNC(=N)N)C(=O)N[C@@H](Cc1c[nH]c2ccccc12)C(=O)NCc1ccccc1` (H-Arg-Arg-Trp-NHBn), the minimal inhibitory concentration (MIC) in the data set on Staphylococcus aureus [1] was found to be 25 µg/mL (≈ 41.3 µM); in the data set with Staphylococcus aureus [3], 75 µg/mL (≈ 124 µM). Moreover, the half-life at 1 mg/ml in data set [4] was less than 0.5 h.
As to `N=C(N)NCCC[C@H](N)C(=O)N[C@@H](Cc1ccc(-c2ccccc2)cc1)C(=O)N[C@@H](Cc1ccc(NC(=N)N)cc1)C(=O)NCc1ccccc1`, the MIC with Staphylococcus aureus [1] and in the data set with Staphylococcus aureus [3] was 5 µg/mL (≈ 7.24 µM) throughout. Besides, the Kd in data set [2] came out at 5.3 µM. Further, the half-life at 1 mg/ml in data set [4] is 4.1 h.
With `N=C(N)NCCC[C@H](NC(=O)[C@H](Cc1ccc(-c2ccccc2)cc1)NC(=O)[C@@H](N)CCCN)C(=O)NCc1ccccc1` (H-[Orn]-[Bip]-Arg-NHBn), the minimum inhibitory concentration (MIC) came out at 15 µg/mL (≈ 25 µM) with Staphylococcus aureus [1] and 25 µg/mL (≈ 41.6 µM) with Staphylococcus aureus [3]. The same compound returned a Kd in data set [2] of 37.2 µM. Further, the half-life at 1 mg/ml in data set [4] is 5.1 h.
Turning to `N=C(N)NCCC[C@H](NC(=O)[C@H](Cc1ccc(-c2ccccc2)cc1)NC(=O)[C@@H](N)CCCNC(=N)N)C(=O)NCc1ccccc1` (H-Arg-[Bip]-Arg-NHBn), the half-life at 1 mg/ml is 0.167 h in data set [5], 0.102 h in data set [6], 1.76 h in data set [7] and 1 h in data set [4]. In addition, the MIC against Staphylococcus aureus [1] and with Staphylococcus aureus [3] was 10 µg/mL (≈ 15.6 µM) in each case. Also, the Kd in data set [2] was found to be 11.3 µM.
Consider `N=C(N)Nc1ccc(C[C@H](N)C(=O)N[C@@H](Cc2ccc(-c3ccccc3)cc2)C(=O)N[C@@H](CCCCN)C(=O)NCc2ccccc2)cc1` (H-[Phe(4-guanidino)]-[Bip]-Lys-NHBn), for which the MIC against Staphylococcus aureus [1] turned out to be 5 µg/mL (≈ 7.54 µM); with Staphylococcus aureus [3], 10 µg/mL (≈ 15.1 µM). For the same compound, in data set [4], the half-life at 1 mg/ml was 2.2 h.
Turning to `N=C(N)NCCC[C@H](N)C(=O)N[C@@H](Cc1ccc(-c2ccccc2)cc1)C(=O)N[C@@H](CNC(=N)N)C(=O)NCc1ccccc1` (H-Arg-[Bip]-[Agp]-NHBn), the half-life at 1 mg/ml was 11.7 h in data set [5], 5.39 h in data set [6] and 3.19 h in data set [7]. In addition, the MIC with Staphylococcus aureus [1] and in the data set on Staphylococcus aureus [3] was 5 µg/mL (≈ 8.13 µM) throughout. Besides, the t1/2 entry in data set [4] is “Stable”.
In the case of `NCCCC[C@H](NC(=O)[C@H](Cc1ccc(-c2ccccc2)cc1)NC(=O)[C@@H](N)CCCCN)C(=O)NCc1ccccc1` (H-Lys-[Bip]-Lys-NHBn), the values for the minimum inhibitory concentration (MIC) in the data set on Staphylococcus aureus [1] and in the data set with Staphylococcus aureus [3] were 25 µg/mL (≈ 42.6 µM) and 15 µg/mL (≈ 25.6 µM), respectively. This compound also yielded a Kd in data set [2] of 21 µM. Moreover, the half-life at 1 mg/ml in data set [4] was 4.5 h.
With `N=C(N)Nc1ccc(C[C@H](NC(=O)[C@H](Cc2ccc(-c3ccccc3)cc2)NC(=O)[C@@H](N)Cc2ccc(NC(=N)N)cc2)C(=O)NCc2ccccc2)cc1` (H-[Phe(4-guanidino)]-[Bip]-[Phe(4-guanidino)]-NHBn), the MIC in the data set on Staphylococcus aureus [1] is less than 2.5 µg/mL; with Staphylococcus aureus [3], 5 µg/mL (≈ 6.77 µM). Also, the half-life at 1 mg/ml in data set [4] is 2.2 h.
On to `N=C(N)NCCC[C@H](NC(=O)[C@H](Cc1ccc(-c2ccccc2)cc1)NC(=O)[C@@H](N)Cc1ccc(NC(=N)N)cc1)C(=O)NCc1ccccc1` (H-[Phe(4-guanidino)]-[Bip]-Arg-NHBn), for which the MIC in the data set on Staphylococcus aureus [1] and in the data set on Staphylococcus aureus [3] was 5 µg/mL (≈ 7.24 µM) each time. The half-life at 1 mg/ml in data set [4] is 0.5 h.
As to `N=C(N)Nc1ccc(C[C@H](NC(=O)[C@H](Cc2ccc(-c3ccccc3)cc2)NC(=O)[C@@H](N)CCCCN)C(=O)NCc2ccccc2)cc1` (H-Lys-[Bip]-[Phe(4-guanidino)]-NHBn), the minimum inhibitory concentration (MIC) in the data set with Staphylococcus aureus [1] and with Staphylococcus aureus [3] was 5 µg/mL (≈ 7.54 µM) each time. The half-life at 1 mg/ml in data set [4] is 5 h.
Turning to `N=C(N)NCCCC[C@H](NC(=O)[C@H](Cc1ccc(-c2ccccc2)cc1)NC(=O)[C@@H](N)CCCNC(=N)N)C(=O)NCc1ccccc1` (H-Arg-[Bip]-[hArg]-NHBn), the half-life at 1 mg/ml in data set [5] stood at 6.69 h; in data set [6], 1.37 h; in data set [7] it was 1.07 h. For the same compound, the MIC in the data set with Staphylococcus aureus [1] worked out at 5 µg/mL (≈ 7.61 µM); against Staphylococcus aureus [3], 10 µg/mL (≈ 15.2 µM). The same compound displayed a dissociation constant Kd in data set [2] of 48.4 µM. In data set [4], the t1/2 entry is “Stable”.
On to `N=C(N)NCCC[C@H](N)C(=O)N[C@@H](Cc1ccc(-c2ccccc2)cc1)C(=O)N[C@@H](CCCCN)C(=O)NCc1ccccc1` (H-Arg-[Bip]-Lys-NHBn), for which the minimal inhibitory concentration (MIC) in the data set on Staphylococcus aureus [1] and with Staphylococcus aureus [3] was 10 µg/mL (≈ 16.3 µM) each time. Moreover, the Kd in data set [2] was 20 µM. Besides, the half-life at 1 mg/ml in data set [4] was 2.8 h.
On to `N=C(N)NCCCC[C@H](N)C(=O)N[C@@H](Cc1ccc(-c2ccccc2)cc1)C(=O)N[C@@H](CCCNC(=N)N)C(=O)NCc1ccccc1` (H-[hArg]-[Bip]-Arg-NHBn), for which the values for the MIC against Staphylococcus aureus [1] and with Staphylococcus aureus [3] were less than 2.5 µg/mL and 10 µg/mL (≈ 15.2 µM), respectively. In addition, the half-life at 1 mg/ml in data set [4] was 1.9 h.
In the case of `N=C(N)NCCC[C@H](NC(=O)[C@@H](N)CCCNC(=N)N)C(=O)N[C@@H](Cc1ccc(-c2ccccc2)cc1)C(=O)NCc1ccccc1` (H-Arg-Arg-[Bip]-NHBn), the MIC against Staphylococcus aureus [1] and against Staphylococcus aureus [3] was 5 µg/mL (≈ 7.78 µM) throughout. Besides, the half-life at 1 mg/ml in data set [4] was less than 0.5 h.
For the compound `N=C(N)NCCC[C@H](NC(=O)[C@H](Cc1ccc(-c2ccccc2)cc1)NC(=O)[C@@H](N)CNC(=N)N)C(=O)NCc1ccccc1` (H-[Agp]-[Bip]-Arg-NHBn), the MIC in the data set with Staphylococcus aureus [1] and in the data set on Staphylococcus aureus [3] was 10 µg/mL (≈ 16.3 µM) in each case. Also, the half-life at 1 mg/ml in data set [4] was 1.4 h.
Regarding `N=C(N)NCCC[C@H](N)C(=O)N[C@@H](Cc1ccc(NC(=N)N)cc1)C(=O)N[C@@H](Cc1c[nH]c2ccccc12)C(=O)NCc1ccccc1` (H-Arg-[Phe(4-guanidino)]-Trp-NHBn), the MIC in the data set with Staphylococcus aureus [1] turned out to be 15 µg/mL (≈ 22.9 µM); in the data set with Staphylococcus aureus [3] it was 50 µg/mL (≈ 76.5 µM). The half-life at 1 mg/ml in data set [4] is 8 h.
For the compound `N=C(N)NCCC[C@H](N)C(=O)N[C@@H](Cc1ccc(-c2ccccc2)cc1)C(=O)N[C@@H](CCCN)C(=O)NCc1ccccc1` (H-Arg-[Bip]-[Orn]-NHBn), the MIC against Staphylococcus aureus [1] was found to be 5 µg/mL (≈ 8.32 µM); against Staphylococcus aureus [3], 10 µg/mL (≈ 16.6 µM). In data set [2], this compound returned a dissociation constant Kd of 57.2 µM. In addition, the t1/2 result in data set [4] is “Stable”.
